Results taken from patent EP4563146A1 (IRBM S.P.A., priority 2023, dated 2025).

Test system: ZIKV replicon
Experiment: ZIKV replication inhibition assay (NanoLuc replicon in Vero cells)
Details: Zika virus, Vero, 72 h, read-out: ZIKA Cell_Nanoluc

Nc1ccc(CC(=O)Nc2cc(NC(=O)[N-]c3c[n+](Cc4ccccn4)no3)cc(C(F)(F)F)c2)cn1 [Example 42] and O=C([N-]c1c[n+](Cc2ccccn2)no1)Nc1cc(NC(=O)c2ccon2)cc(C(F)(F)F)c1 [Example 44] fall in the same range of EC50: 1 to 20 µM for the first, 1 to 20 µM for the second.

O=C(CS(=O)(=O)c1ccccc1)Nc1cc(NC(=O)[N-]c2c[n+](Cc3ccccn3)no2)cc(C(F)(F)F)c1 [Example 43] and O=C(C#Cc1ccccc1)Nc1cc(NC(=O)[N-]c2c[n+](Cc3ccccn3)no2)cc(C(F)(F)F)c1 [Example 46] fall in the same range of EC50: 1 to 20 µM for the first, 1 to 20 µM for the second.

O=C([N-]c1c[n+](Cc2ccccn2)no1)Nc1cc(NC(=O)c2cnccn2)cc(C(F)(F)F)c1 [Example 45] and CC(C)n1ccc(C(=O)Nc2cc(NC(=O)[N-]c3c[n+](Cc4ccccn4)no3)cc(C(F)(F)F)c2)n1 [Example 48] fall in the same range of EC50: 1 to 20 µM for the first, 1 to 20 µM for the second.

O=C([N-]c1c[n+](Cc2ccccn2)no1)Nc1cc(NC(=O)C2Cc3ccccc32)cc(C(F)(F)F)c1 (stereo not drawn) [Example 47] and Cc1cccc2c1OCC2C(=O)Nc1cc(NC(=O)[N-]c2c[n+](Cc3ccccn3)no2)cc(C(F)(F)F)c1 (stereo not drawn) [Example 67] fall in the same range of EC50: 1 to 20 µM for the first, 1 to 20 µM for the second.

First: CN1CC(C(=O)Nc2cc(NC(=O)[N-]c3c[n+](Cc4ccccn4)no3)cc(C(F)(F)F)c2)C1 [Example 49]
Second: O=C([N-]c1c[n+](Cc2ccccn2)no1)Nc1cc(NC(=O)C2CN(C3CC3)C2)cc(C(F)(F)F)c1 [Example 77]
The EC50 of the first is lower: 1 to 20 µM for the first, greater than 20 µM for the second.

Compared with O=C([N-]c1c[n+](Cc2ccccn2)no1)Nc1cc(NC(=O)C2CC2c2ccccc2)cc(C(F)(F)F)c1 (stereo not drawn) [Example 50], O=C([N-]c1c[n+](Cc2ccccn2)no1)Nc1cc(NC(=O)C2CC(Cc3ccccc3)C2)cc(C(F)(F)F)c1 (stereo not drawn) [Example 68] is higher in EC50: 0.1 to 1 µM for the first, 1 to 20 µM for the second. The first is the more potent here.

O=C(CC1CCC1)Nc1cc(NC(=O)[N-]c2c[n+](Cc3ccccn3)no2)cc(C(F)(F)F)c1 [Example 54] and O=C(CCOC1CCCC1)Nc1cc(NC(=O)[N-]c2c[n+](Cc3ccccn3)no2)cc(C(F)(F)F)c1 [Example 73] fall in the same range of EC50: 1 to 20 µM for the first, 1 to 20 µM for the second.

O=C([N-]c1c[n+](Cc2ccccn2)no1)Nc1cc(NC(=O)c2cc3n(n2)CCS(=O)(=O)C3)cc(C(F)(F)F)c1 [Example 64] and O=C([N-]c1c[n+](Cc2ccccn2)no1)Nc1cc(NC(=O)C2CS(=O)(=O)CCO2)cc(C(F)(F)F)c1 (stereo not drawn) [Example 88] cannot be ordered by EC50: greater than 20 µM for the first, greater than 20 µM for the second.

Compared with O=C(Cn1c(C(F)F)nc2ccccc21)Nc1cc(NC(=O)[N-]c2c[n+](Cc3ccccn3)no2)cc(C(F)(F)F)c1 [Example 65], O=C([N-]c1c[n+](Cc2ccccn2)no1)Nc1cc(NC(=O)c2ccc3c(n2)CCO3)cc(C(F)(F)F)c1 [Example 79] is lower in EC50: greater than 20 µM for the first, 1 to 20 µM for the second. The second is the more potent here.

First: O=C([N-]c1c[n+](Cc2ccccn2)no1)Nc1cc(NC(=O)C23CCC(O)(CC2)C3)cc(C(F)(F)F)c1 [Example 66]
Second: O=C([N-]c1c[n+](Cc2ccccn2)no1)Nc1cc(NC(=O)C2CC(F)(F)C23CCC3)cc(C(F)(F)F)c1 (stereo not drawn) [Example 85]
The EC50 of the first is higher: greater than 20 µM for the first, 1 to 20 µM for the second.

O=C([N-]c1c[n+](Cc2ccccn2)no1)Nc1cc(NC(=O)[C@H]2C[C@](O)(c3ccccn3)C2)cc(C(F)(F)F)c1 [Example 69] and O=C([N-]c1c[n+](Cc2ccccn2)no1)Nc1cc(NC(=O)c2cncn2C2CC2)cc(C(F)(F)F)c1 [Example 75] cannot be ordered by EC50: greater than 20 µM for the first, greater than 20 µM for the second.

Cc1ccc(CN2CCC(C(=O)Nc3cc(NC(=O)[N-]c4c[n+](Cc5ccccn5)no4)cc(C(F)(F)F)c3)CC2)o1 [Example 70] and O=C([N-]c1c[n+](Cc2ccccn2)no1)Nc1cc(NC(=O)C(F)(F)CN2CCCC2)cc(C(F)(F)F)c1 [Example 76] cannot be ordered by EC50: greater than 20 µM for the first, greater than 20 µM for the second.

N#Cc1ccn(C2(C(=O)Nc3cc(NC(=O)[N-]c4c[n+](Cc5ccccn5)no4)cc(C(F)(F)F)c3)CC2)n1 [Example 71] and O=C([N-]c1c[n+](Cc2ccccn2)no1)Nc1cc(NC(=O)C2(Oc3ccc(Cl)cc3)COC2)cc(C(F)(F)F)c1 [Example 83] fall in the same range of EC50: 1 to 20 µM for the first, 1 to 20 µM for the second.

Cn1cnnc1COCC(=O)Nc1cc(NC(=O)[N-]c2c[n+](Cc3ccccn3)no2)cc(C(F)(F)F)c1 [Example 72] and O=C(CCCCS(=O)(=O)N1CCCCC1)Nc1cc(NC(=O)[N-]c2c[n+](Cc3ccccn3)no2)cc(C(F)(F)F)c1 [Example 82] cannot be ordered by EC50: greater than 20 µM for the first, greater than 20 µM for the second.

O=C([N-]c1c[n+](Cc2ccccn2)no1)Nc1cc(NC(=O)C2CCCC3(CCOC3)O2)cc(C(F)(F)F)c1 (stereo not drawn) [Example 84] gave an EC50 of 1 to 20 µM.

Same assay, conditions: Zika virus, Vero, 72 h, read-out: ZIKA Cell_Nanoluc, Vero cells with stable ZIKV replicon, 72 h, Nano-Glo readout

Cc1nc(CC(=O)Nc2cc(NC(=O)[N-]c3c[n+](Cc4ccccn4)no3)cc(C(F)(F)F)c2)cs1 [Example 41, ((3-(2-(2-Methylthiazol-4-yl)acetamido)-5-(trifluoromethyl)phenyl)-carbamoyl)(3-(pyridin-2-ylmethyl)-1,2,3-oxadiazol-3-ium-5-yl)amide] and O=C(CC1CC2CC1C2)Nc1cc(NC(=O)[N-]c2c[n+](Cc3ccccn3)no2)cc(C(F)(F)F)c1 (stereo not drawn) [Example 63, ((3-(2-(Bicyclo[2.1.1]hexan-2-yl)acetamido)-5-(trifluoromethyl)phenyl)carbamoyl)(3-(pyridin-2-ylmethyl)-1,2,3-oxadiazol-3-ium-5-yl)amide] fall in the same range of EC50: 1 to 20 µM for the first, 1 to 20 µM for the second.

Compared with O=C([N-]c1c[n+](Cc2ccccn2)no1)Nc1cc(NC(=O)C23CC(C(=O)O)(C2)C3)cc(C(F)(F)F)c1 [Example 52, ((3-(3-Carboxybicyclo[1.1.1]pentane-1-carboxamido)-5-(trifluoromethyl)phenyl)-carbamoyl)(3-(pyridin-2-ylmethyl)-1,2,3-oxadiazol-3-ium-5-yl)amide], O=C([N-]c1c[n+](Cc2ccccn2)no1)Nc1cc(NC(=O)c2[nH]cc3c2CCC3)cc(C(F)(F)F)c1 [Example 87, (3-(Pyridin-2-ylmethyl)-1,2,3-oxadiazol-3-ium-5-yl)((3-(2,4,5,6-tetrahydrocyclopenta[c]pyrrole-1-carboxamido)-5-(trifluoromethyl)phenyl)-carbamoyl)amide] is higher in EC50: 1 to 20 µM for the first, greater than 20 µM for the second.

O=C([N-]c1c[n+](Cc2ccccn2)no1)Nc1cc(NCCc2ccccc2)cc(C(F)(F)F)c1 [Example 53, ((3-(Phenethylamino)-5-(trifluoromethyl)-phenyl)carbamoyl)(3-(pyridin-2-ylmethyl)-1,2,3-oxadiazol-3-ium-5-yl)amide] and O=C(Cc1cc(NC(=O)[N-]c2c[n+](Cc3ccccn3)no2)cc(C(F)(F)F)c1)NCc1ccccc1 [Example 90, ((3-(2-(Benzylamino)-2-oxoethyl)-5-(trifluoromethyl)phenyl)carbamoyl)(3-(pyridin-2-ylmethyl)-1,2,3-oxadiazol-3-ium-5-yl)amide] fall in the same range of EC50: 1 to 20 µM for the first, 1 to 20 µM for the second.

NCc1ccc(C[n+]2cc([N-]C(=O)Nc3cc(NC(=O)Cc4ccccc4)cc(C(F)(F)F)c3)on2)cc1 [Example 56, (3-(4-(Aminomethyl)benzyl)-1,2,3-oxadiazol-3-ium-5-yl)((3-(2-phenylacetamido)-5-(trifluoromethyl)phenyl)carbamoyl)amide] and COC(=O)c1ccc(C[n+]2cc([N-]C(=O)Nc3cc(NC(=O)Cc4ccccc4)cc(C(F)(F)F)c3)on2)cc1 [Example 98, (3-(4-(Methoxycarbonyl)benzyl)-1,2,3-oxadiazol-3-ium-5-yl)((3-(2-phenyl-acetamido)-5-(trifluoromethyl)phenyl)carbamoyl)amide] fall in the same range of EC50: 1 to 20 µM for the first, 1 to 20 µM for the second.

First: Cc1cc(NC(=O)Cc2ccccc2)cc(NC(=O)[N-]c2c[n+](Cc3ccccn3)no2)c1 [Example 57, ((3-Methyl-5-(2-phenylacetamido)phenyl)carbamoyl)(3-(pyridin-2-ylmethyl)-1,2,3-oxadiazol-3-ium-5-yl)amide]
Second: O=C(Cc1ccccc1)Nc1cc(Cl)cc(NC(=O)[N-]c2c[n+](Cc3ccccn3)no2)c1 [Example 58, ((3-Chloro-5-(2-phenylacetamido)phenyl)carbamoyl)(3-(pyridin-2-ylmethyl)-1,2,3-oxadiazol-3-ium-5-yl)amide]
The EC50 of the first is higher: greater than 20 µM for the first, 1 to 20 µM for the second. The second is the more potent here.

First: CC(c1ccc(C(=O)Nc2cc(NC(=O)[N-]c3c[n+](Cc4ccccn4)no3)cc(C(F)(F)F)c2)cc1)S(N)(=O)=O (stereo not drawn) [Example 78, (3-(Pyridin-2-ylmethyl)-1,2,3-oxadiazol-3-ium-5-yl)((3-(4-(1-sulfamoylethyl)-benzamido)-5-(trifluoromethyl)phenyl)carbamoyl)amide]
Second: O=C([N-]c1c[n+](Cc2ccccn2)no1)Nc1cc(NC(=O)c2ccn3c2COCC3)cc(C(F)(F)F)c1 [Example 81, ((3-(3,4-Dihydro-1H-pyrrolo[2,1-c][1,4]oxazine-8-carboxamido)-5-(trifluoromethyl)-phenyl)carbamoyl)(3-(pyridin-2-ylmethyl)-1,2,3-oxadiazol-3-ium-5-yl)amide]
The EC50 of the first is higher: greater than 20 µM for the first, 1 to 20 µM for the second.

Compared with O=C([N-]c1c[n+](Cc2ccccn2)no1)Nc1cc(NC(=O)C2CCn3cncc3C2)cc(C(F)(F)F)c1 (stereo not drawn) [Example 80, (3-(Pyridin-2-ylmethyl)-1,2,3-oxadiazol-3-ium-5-yl)((3-(5,6,7,8-tetrahydroimidazo [1,5-a]pyridine-7-carboxamido)-5-(trifluoromethyl)phenyl)carbamoyl)amide], O=C(CC1(N2CCCC2)COC1)Nc1cc(NC(=O)[N-]c2c[n+](Cc3ccccn3)no2)cc(C(F)(F)F)c1 [Example 86, (3-(Pyridin-2-ylmethyl)-1,2,3-oxadiazol-3-ium-5-yl)((3-(2-(3-(pyrrolidin-1-yl)oxetan-3-yl)acetamido)-5-(trifluoromethyl)phenyl)carbamoyl)amide] is lower in EC50: greater than 20 µM for the first, 1 to 20 µM for the second.

Compared with O=C(Cc1ccccc1)Nc1cc(NC(=O)[N-]c2c[n+](Cc3ccccn3)no2)cc(C2CC2)c1 [Example 89, ((3-Cyclopropyl-5-(2-phenylacetamido)phenyl)carbamoyl)(3-(pyridin-2-ylmethyl)-1,2,3-oxadiazol-3-ium-5-yl)amide], C=CCOC(=O)C[n+]1cc([N-]C(=O)Nc2cc(NC(=O)Cc3ccccc3)cc(C(F)(F)F)c2)on1 [Example 97, (3-(2-(Allyloxy)-2-oxoethyl)-1,2,3-oxadiazol-3-ium-5-yl)((3-(2-phenylacetamido)-5-(trifluoromethyl)phenyl)carbamoyl)amide] is higher in EC50: 1 to 20 µM for the first, greater than 20 µM for the second. The first is the more potent here.
